The values that follow come from patent publication US20160193216A1 (Nimbus Iris, Inc., priority 2012, published 2016).

Structures are written as SMILES. Read-outs that look alike come from different tables or passages of the source.

One assay addresses T1, IRAK4 (Homo sapiens, UniProt Q9NWZ3).
T1 sequence (Q9NWZ3 1-460): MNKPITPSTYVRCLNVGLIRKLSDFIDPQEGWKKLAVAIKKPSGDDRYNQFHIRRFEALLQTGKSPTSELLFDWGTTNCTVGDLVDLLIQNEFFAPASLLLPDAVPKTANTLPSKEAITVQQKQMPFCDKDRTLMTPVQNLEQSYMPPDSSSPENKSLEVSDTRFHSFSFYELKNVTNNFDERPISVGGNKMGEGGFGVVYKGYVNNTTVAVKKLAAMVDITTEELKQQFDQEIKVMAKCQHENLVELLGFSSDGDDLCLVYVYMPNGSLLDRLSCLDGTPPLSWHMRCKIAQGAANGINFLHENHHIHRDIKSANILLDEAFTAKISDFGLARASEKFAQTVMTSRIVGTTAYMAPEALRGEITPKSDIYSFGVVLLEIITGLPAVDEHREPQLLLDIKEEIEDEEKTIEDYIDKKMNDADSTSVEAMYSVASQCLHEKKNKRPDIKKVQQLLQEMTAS
The experiment in a line: IRAK-4 activity inhibition assay (Caliper). In kind it is biochemical. Particulars: 37 μM ATP, 3.5 nM IRAK4.

The next assay relates to THP-1 cells. The experiment in a line: LPS induced cytokine (TNFα and IL8) production assay in THP-1 cells. In kind it is cell-based. Particulars: Homo sapiens, 300 ng/mL LPS. The method, then: Cytokine Production Assay
Provided compounds were also assayed in an LPS (Lipopolysacharide) or R848 (TLR-7 agonist) induced cytokine (TNFα and IL8) production assay in THP-1 cells, human peripheral blood mononuclear cells (hPBMC), and whole blood. The exemplary protocol for this assay in THP-1 cells was as follows below.
THP-1 cells from ATCC (TIB-202) were cultured in RPMI Medium 1640 (Invitrogen, Cat No. A10491-01), 10% fetal bovine serum (Invitrogen, Cat No. 10099141, Lot No. 8172882) containing 100 U/mL Penicillin, 100 μg/mL streptomycin (Invitrogen, Cat No. 15140-122), and 50 uM 2-Mercaptoethanol (Invitrogen, Cat No. 21985023). LPS-EK ultra pure (Invivogen, Cat No. tlrl-peklps) was used to induce IL8 and TNFα production, that was detected in the cell culture supernatant by IL8 HTRF kit (Cisbio, Cat No. 62IL8PEB) and TNFα HTRF kit (Cisbio, Cat No. 62TNFPEB), as per manufacturer instructions. Cells were cultured in 96 well assay plates at 100,000 cells per well, and compounds diluted in final 0.3% DMSO were pre-incubated with cells for 1 hour prior to stimulation with 300 ng/mL LPS. Cytokine production in cell supernatant was measured at 5 hours for TNFα and IL8 production, and for 16 hours for IL8 production and assessment of cell viability.
The compound numbers correspond to the compound numbers in Table 1. […] “NA” stands for “not assayed.”

Turning to `CN(C)[C@H]1CC[C@H](Oc2ncnc3sc4c(c23)CN(S(C)(=O)=O)CC4)CC1` [Compound I-168, 4-([12-methanesulfonyl-8-thia-4,6,12-triazatricyclo[7.4.0.0-[2,7]]trideca-1(9),2(7),3,5-tetraen-3-yl]oxy)-N,N-dimethylcyclohexan-1-amine], the figures for the IC50 on IRAK4, with THP-1 cells (read-out: IL8 production IC50) and with THP-1 cells (read-out: TNFα production IC50) were less than 5 µM, not below 5000 nM and not below 5000 nM, respectively.
Consider `CN(C)[C@H]1CC[C@H](Oc2ncnc3sc4c(c23)[C@@H](C[C@H](O)C(=O)NCO)CC4)CC1` [Compound I-100, (S)-3-((R)-4-(((1r,4R)-4-(dimethylamino)cyclohexyl)oxy)-6,7-dihydro-5H-cyclopenta[4,5]thieno[2,3-d]pyrimidin-5-yl)-2-hydroxy-N-(hydroxymethyl)propanamide], for which the figures for the IC50 on IRAK4, in the assay on THP-1 cells (read-out: IL8 production IC50) and in the assay on THP-1 cells (read-out: TNFα production IC50) were less than 5 µM, 1000 to 5000 nM and 1000 to 5000 nM, respectively.
With `CN(C)[C@H]1CC[C@H](Oc2nc(Nc3ccccc3)nc3sc4c(c23)C(CC(N)=O)CC4)CC1` (some centres unmarked) [Compound I-204, 2-(12-[[4-(dimethylamino)cyclohexyl]oxy]-10-(phenylamino)-7-thia-9, 11-diazatricyclo[6.4.0.0̂[2,6]]dodeca-1(12),2(6),8, 10-tetraen-3-yl)acetamide], the IC50 (as a rule, the concentration that gives 50% inhibition) lay in the range of 1000 to 5000 nM in the assay with THP-1 cells (read-out: IL8 production IC50) and 500 to 1000 nM in the assay with THP-1 cells (read-out: TNFα production IC50).
For `CN[C@H]1CC[C@H](Oc2ncnc3sc4c(c23)[C@@H](C[C@H](O)C(N)=O)CC4)CC1` [Compound I-137, (2S)-2-hydroxy-3-[(3R)-12-[[4-(methylamino)cyclohexyl]oxy]-7-thia-9,11-diazatricyclo[6.4.0.0[2,6]]dodeca-1(8),2(6),9,11-tetraen-3-yl]propanamide], the IC50 on IRAK4 was less than 5 µM; in the assay with THP-1 cells (read-out: IL8 production IC50), 500 to 1000 nM; with THP-1 cells (read-out: TNFα production IC50), 500 to 1000 nM.
Take `OC[C@@H]1CCc2sc3ncnc(O[C@H]4CC[C@H](N5CCOCC5)CC4)c3c2C1` [Compound I-215, [(12R)-3-[[4-(morpholin-4-yl)cyclohexyl]oxy]-8-thia-4,6-diazatricyclo[7.4.0.0[2,7]]trideca-1(9),2(7),3,5-tetraen-12-yl]methanol]: the IC50 against IRAK4 is less than 5 µM; in the assay on THP-1 cells (read-out: IL8 production IC50), 1000 to 5000 nM; in the assay on THP-1 cells (read-out: TNFα production IC50), 500 to 1000 nM.
Taken in the same sequence, the figures for `CN(CCc1ccccn1)[C@H]1CC[C@H](Oc2ncnc3sc4c(c23)[C@@H](CC(N)=O)CC4)CC1` [Compound I-128, 2-((R)-4-(((1 r,4R)-4-(methyl(2-(pyridin-2-yl)ethyl)amino)cyclohexyl)oxy)-6,7-dihydro-5H-cyclopenta[4,5]thieno[2,3-d]pyrimidin-5-yl)acetamide] were less than 5 µM, 500 to 1000 nM and 1000 to 5000 nM.
For `Cn1cc(Nc2nc(O[C@H]3CC[C@H](N(C)C)CC3)c3c4c(sc3n2)CCC4CC(N)=O)cn1` (stereo in doubt) [Compound I-222, 2-[(3R)-12-[[4-(dimethylamino)cyclohexyl]oxy]-10-[(1-methyl-1H-pyrazol-4-yl)amino]-7-thia-9, 11-diazatricyclo[6.4.0.0[2,6]]dodeca-1(8),2(6),9,11-tetraen-3-yl]acetamide], the IC50 with THP-1 cells (read-out: IL8 production IC50) and with THP-1 cells (read-out: TNFα production IC50) was not below 5000 nM each time.
Consider `NC(=O)[C@H](O)C[C@H]1CCc2sc3ncnc(O[C@H]4CC[C@H](N5CCOCC5)CC4)c3c21` [Compound I-93, (R)-2-hydroxy-3-((R)-4-(((1r,4R)-4-morpholinocyclohexyl)oxy)-6,7-dihydro-5H-cyclopenta[4,5]thieno[2,3-d]pyrimidin-5-yl)propanamide], for which the IC50 in the assay on THP-1 cells (read-out: IL8 production IC50) and with THP-1 cells (read-out: TNFα production IC50) was 1000 to 5000 nM each time.
With `NC(=O)C(O)C[C@H]1CCc2sc3ncnc(O[C@H]4CC[C@H](N5CCOCC5)CC4)c3c21` (mixture of isomers) [Compound I-87, 2-hydroxy-3-((R)-4-(((1r,4R)-4-morpholinocyclohexyl)oxy)-6,7-dihydro-5H-cyclopenta[4,5]thieno[2,3-d]pyrimidin-5-yl)propanamide], the IC50 in the assay with THP-1 cells (read-out: IL8 production IC50) and with THP-1 cells (read-out: TNFα production IC50) was not above 500 nM each time.
In turn, `CN(C)[C@H]1CC[C@H](Oc2ncnc3sc4c(c23)[C@@H](C[C@@H](O)C(N)=O)CC4)CC1` [Compound I-75, (2R)-3-[(3R)-12-[[4-(dimethylamino)cyclohexyl]oxy]-7-thia-9,11-diazatricyclo[6.4.0.0̂[2,6]]dodeca-1(8),2(6),9,11-tetraen-3-yl]-2-hydroxypropanamide] had an IC50 at IRAK4 of less than 5 µM.
For the compound `CCNC(=O)CC1CCc2sc3ncnc(N[C@H]4CC[C@H](N(C)C)CC4)c3c21` (some centres unmarked) [Compound I-23, 2-(12-[[4-(dimethylamino)cyclohexyl]amino]-7-thia-9,11-diazatricyclo[6.4.0.0̂[2,6]]dodeca-1(8),2(6),9,11-tetraen-3-yl)-N-ethylacetamide], the IC50 at IRAK4 is 5 to 20 µM.
The same measure, in the same setting: as for `CN(C)[C@H]1CC[C@H](Nc2ncnc3sc4c(c23)C(C)(C)CC4)CC1` [Compound I-6, (1r,4r)-N1-(5,5-dimethyl-6,7-dihydro-5H-cyclopenta[4,5]thieno[2,3-d]pyrimidin-4-yl)-N4,N4-dimethylcyclohexane-1,4-diamine], the figure is 5 to 20 µM.
Still for that read-out and setting: in the case of `CCOC(=O)C1CCc2sc3ncnc(O[C@H]4CC[C@H](N(C)C)CC4)c3c21` (some centres unmarked) [Compound I-4] it was 20 to 50 µM; in that of `CN[C@H]1CC[C@H](Oc2ncnc3sc4c(c23)[C@@H](C[C@H](C#N)OC)CC4)CC1` [Compound I-81, (2R)-2-methoxy-3-[(3R)-12-[[4-(methylamino)cyclohexyl]oxy]-7-thia-9,11-diazatricyclo[6.4.0.0[2,6]]dodeca-1(8),2(6),9,11-tetraen-3-yl]propanenitrile], 5 to 20 µM.
In turn, `CC(=O)N1CCc2sc3ncnc(O[C@H]4CC[C@H](N5CCOCC5)CC4)c3c2C1` [Compound I-171, 1-(3-[[4-(morpholin-4-yl)cyclohexyl]oxy]-8-thia-4,6,12-triazatricyclo[7.4.0.0[2,7]]trideca-1(9),2(7),3,5-tetraen-12-yl)ethan-1-one] returned an IC50 at IRAK4 of 5 to 20 µM.
On the same count and under the same terms, in the case of `CN(C)[C@H]1CC[C@H](Oc2ncnc3sc4c(c23)C[C@H](CC(N)=O)CC4)CC1` [Compound I-113, 2-[(12R)-3-[[4-(dimethylamino)cyclohexyl]oxy]-8-thia-4,6-diazatricyclo[7.4.0.0[2,7]]trideca-1(9),2(7),3,5-tetraen-12-yl]acetamide] it was less than 5 µM; in that of `CC1(C(N)=O)CCc2sc3ncnc(O[C@H]4CC[C@H](N5CCOCC5)CC4)c3c2C1` (some centres unmarked) [Compound I-237, 12-methyl-3-[[(1r,4r)-4-(morpholin-4-yl)cyclohexyl]oxy]-8-thia-4,6-diazatricyclo[7.4.0.0[2,7]]trideca-1(9),2,4,6-tetraene-12-carboxamide], less than 5 µM; in that of `C[C@@H](O)CNC(=O)C[C@H]1CCc2sc3ncnc(O[C@H]4CC[C@H](N(C)C)CC4)c3c21` [Compound I-141, 2-((R)-4-(((1r,4R)-4-(dimethylamino)cyclohexyl)oxy)-6,7-dihydro-5H-cyclopenta[4,5]thieno[2,3-d]pyrimidin-5-yl)-N—((R)-2-hydroxypropyl)acetamide], 5 to 20 µM.
Still for that read-out and setting: as for `CN(C)[C@H]1CC[C@H](Nc2ncnc3sc4c(c23)C(C(=O)O)CC4)CC1` (some centres unmarked) [Compound I-5, 4-(((1s,4s)-4-(dimethylamino)cyclohexyl)amino)-6,7-dihydro-5H-cyclopenta[4,5]thieno[2,3-d]pyrimidine-5-carboxylic acid], the figure is 5 to 20 µM.
The same measure, in the same setting: as for `C[C@H](O)C[C@H]1CCc2sc3ncnc(O[C@H]4CC[C@H](N(C)CC(=O)N5CCCC5)CC4)c3c21` [Compound I-69, 2-(((1R,4r)-4-(((R)-5-((S)-2-hydroxypropyl)-6,7-dihydro-5H-cyclopenta[4,5]thieno[2,3-d]pyrimidin-4-yl)oxy)cyclohexyl)(methyl)amino)-1-(pyrrolidin-1-yl)ethanone], the figure is less than 5 µM; as for `C[C@@H]1COCCN1[C@H]1CC[C@H](Oc2ncnc3sc4c(c23)[C@@H](CC(N)=O)CC4)CC1` [Compound I-227, 2-[(3R)-12-([4-[(3R)-3-methylmorpholin-4-yl]cyclohexyl]oxy)-7-thia-9,11-diazatricyclo[6.4.0.0[2,6]]dodeca-1(8),2(6),9, 11-tetraen-3-yl]acetamide], less than 5 µM.
